Measured values from US9809621B2, “Stable peptide-based PACE4 inhibitors” (SOCPRA SCIENCES SANTÉ ET HUMAINES S.E.C., priority 2011, dated 2017).
Several values for one entry are separate records, joined by “and”; a condition that tells them apart may be missing. Equal entries are not always repeated. Where two headings read alike, the source gives them in different places. Numbered stars: 1 amine (or outer) side, 2 acyl side, 3 side chain; on linkers, the order of the positions; unused ones are H or OH. Square brackets hold non-standard residues; d marks the D form. Peptide text beside a SMILES is read from it. * marks the point of attachment. X3 = CC(C)C[C@H](N[*:1])c1cn([C@@H](CC(C)C)C(=O)[*:2])nn1; X5 = CC(C)C/C(=C\C[C@H](CC(C)C)N[*:1])C(=O)[*:2]; NH(4-amidinobenzyl) = N=C(N)c1ccc(CN*)cc1; PEG8 = NCCOCCOCCOCCOCCOCCOCCOCCOCCC(=O)O; X4 = N=C(N)NCCCN(CC(N)=O)N*; Nle = CCCC[C@H](N)C(=O)O

Columns and labels:
[1] = Stability following incubation with DU145 cells; format: in vitro ADME, human; conditions: human, DU145 cells, Table 1, read-out: Stability (% remaining after 48 h)
Experimental: (§1) Multiple multi-Leu variants described in Table 1 were tested for their stability following incubation with DU145 cells, wherein their cellular stability and plasmatic half-life was measured.
Consequently, the multi-Leu peptide was further modified by the addition of amino acid analogues and/or with pseudo peptide bounds which increase the protection of the modified peptides from peptidase and protease degradation. Gains in stability were also measured in vitro in tumoral prostatic human cells (DU145). Increase in stability of the variants was also measured in vivo (FIG. 4).

[2] = Plasmatic half-life / degradation by plasmatic protease; format: in vitro ADME; conditions: plasma, Table 1
Experimental: as §1
Stabilisation strategy for multi-Leu variants was also assessed in presence of plasmatic protease. 8 variants protected at their N-terminal leucines were tested in order to establish their level of degradation since it is expected that N-terminal degradation will occur in absence of any modifications other than acetylation. Variants tested with azaβ3-leucine at each individual position and “click” bonds between the different leucines of the N-terminal part of the variants were protected against degradation (see FIG. 3 for modifications).

PACE4 = target: T1, PACE4 (Homo sapiens, UniProt P29122); assay: Inhibition constant (Ki) for PACE4; format: biochemical
T1 sequence (P29122 150-969): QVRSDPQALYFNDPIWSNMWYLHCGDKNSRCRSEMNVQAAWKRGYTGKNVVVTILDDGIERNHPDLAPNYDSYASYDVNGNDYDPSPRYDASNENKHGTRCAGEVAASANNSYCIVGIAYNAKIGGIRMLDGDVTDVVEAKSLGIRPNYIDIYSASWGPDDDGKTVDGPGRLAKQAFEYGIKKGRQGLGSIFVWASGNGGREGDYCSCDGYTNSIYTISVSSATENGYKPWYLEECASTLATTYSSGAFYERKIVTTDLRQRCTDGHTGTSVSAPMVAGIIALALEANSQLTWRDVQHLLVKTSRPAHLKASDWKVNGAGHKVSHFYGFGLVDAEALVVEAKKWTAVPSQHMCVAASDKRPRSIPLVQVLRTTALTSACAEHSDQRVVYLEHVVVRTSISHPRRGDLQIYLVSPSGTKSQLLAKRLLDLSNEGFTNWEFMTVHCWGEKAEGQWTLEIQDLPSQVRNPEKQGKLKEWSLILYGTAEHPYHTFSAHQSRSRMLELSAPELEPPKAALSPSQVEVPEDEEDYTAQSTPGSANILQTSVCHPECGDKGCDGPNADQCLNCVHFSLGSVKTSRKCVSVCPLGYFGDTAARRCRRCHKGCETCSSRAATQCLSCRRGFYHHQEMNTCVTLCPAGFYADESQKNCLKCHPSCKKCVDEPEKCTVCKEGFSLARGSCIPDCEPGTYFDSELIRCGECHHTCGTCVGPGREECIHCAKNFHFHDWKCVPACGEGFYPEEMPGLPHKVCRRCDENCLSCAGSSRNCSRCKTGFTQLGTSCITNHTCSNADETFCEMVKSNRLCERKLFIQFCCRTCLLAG

DU145 cells = conditions: MTT, FIG. 1C, FIG. 7
[3] = Table 1, read-out: Ki for PACE4

Row | Molecule | remaining at 48 h [1] [%] | half-life [2] [h] | Ki (PACE4; [3]) | Anti-proliferative activity in DU145 cells (in words) (DU145 cells) | Ki (PACE4; Ki for PACE4, Table 1) [nM]
1 | CC(=O)NN(CC(=O)N[C@@H](CC(C)C)C(=O)N[C@@H](CC(C)C)C(=O)N[C@@H](CC(C)C)C(=O)N[C@@H](CCCNC(=N)N)C(=O)N[C@H](C(=O)N[C@@H](CCCCN)C(=O)N[C@@H](CCCNC(=N)N)C(N)=O)C(C)C)CC(C)C [ML[Azaβ3L]^P8] | 83 | 2.5 ± 0.1 |  |  | 
2 | CC(=O)N[C@@H](CC(C)C)C(=O)N[C@@H](CC(C)C)C(=O)N[C@@H](CC(C)C)C(=O)N[C@@H](CC(C)C)C(=O)N[C@@H](CCCNC(=N)N)C(=O)N[C@H](C(=O)N[C@@H](CCCCN)C(=O)NN(CCCNC(=N)N)CC(N)=O)C(C)C [ML[Azaβ3R]^P1, Ac-LLLLRVK[Azaβ3R]-NH2] (Ac-LLLLRVK-X4) |  | 5.39 ± 0.08 | 460 nM |  | 
3 | CC(=O)NCCOCCOCCOCCOCCOCCOCCOCCOCCC(=O)N[C@@H](CC(C)C)C(=O)N[C@@H](CC(C)C)C(=O)N[C@@H](CC(C)C)C(=O)N[C@@H](CC(C)C)C(=O)N[C@@H](CCCNC(=N)N)C(=O)N[C@H](C(=O)N[C@@H](CCCCN)C(=O)N[C@@H](CCCNC(=N)N)C(N)=O)C(C)C [[H2N-PEG8]-ML, Ac-[HN-PEG8]-LLLLRVKR-NH2] (Ac-[PEG8]LLLLRVKR-NH2) | 64 | 1.3 ± 0.2 |  |  | 
4 | CC(=O)N[C@@H](CC(C)C)C(=O)N[C@@H](CC(C)C)c1cn([C@@H](CC(C)C)C(=O)N[C@@H](CC(C)C)C(=O)N[C@@H](CCCNC(=N)N)C(=O)N[C@H](C(=O)N[C@@H](CCCCN)C(=O)N[C@@H](CCCNC(=N)N)C(N)=O)C(C)C)nn1 [ML[click]^P7-P6, Ac-LL[click]LLRVKR-NH2] (Ac-L[X3]LRVKR-NH2) |  | 1 ± 0.2 | 600 nM |  | 
5 | CC(=O)N[C@@H](CC(C)C)c1cn([C@@H](CC(C)C)C(=O)N[C@@H](CC(C)C)C(=O)N[C@@H](CC(C)C)C(=O)N[C@@H](CCCNC(=N)N)C(=O)N[C@H](C(=O)N[C@@H](CCCCN)C(=O)N[C@@H](CCCNC(=N)N)C(N)=O)C(C)C)nn1 [ML[click]^P8-P7, Ac-L[click]LLLRVKR-NH2] (Ac-[X3]LLRVKR-NH2) | 52 | 4 ± 0.5 | 37 nM |  | 
6 | CC(=O)N[C@H](C/C=C(\CC(C)C)C(=O)N[C@@H](CC(C)C)C(=O)N[C@@H](CC(C)C)C(=O)N[C@@H](CCCNC(=N)N)C(=O)N[C@H](C(=O)N[C@@H](CCCCN)C(=O)N[C@@H](CCCNC(=N)N)C(N)=O)C(C)C)CC(C)C [ML[c-ene]^P8-P7, Ac-L═LLLRVKR-NH2] (Ac-[X5]LLRVKR-NH2) |  | ~7.4 |  |  | 
7 | CCCC[C@H](NC(=O)[C@H](CC(C)C)NC(=O)[C@H](CC(C)C)NC(=O)[C@H](CC(C)C)NC(C)=O)C(=O)N[C@@H](CCCN=C(N)N)C(=O)N[C@H](C(=O)N[C@@H](CCCCN)C(=O)N[C@@H](CCCN=C(N)N)C(N)=O)C(C)C [ML[Nle]^P5] (Ac-LLL[Nle]RVKR-NH2) |  |  | 17 nM and 37 nM |  | 
8 | CC(=O)N[C@@H](CC(C)C)C(=O)N[C@@H](CC(C)C)C(=O)N[C@@H](CC(C)C)C(=O)N[C@@H](CC(C)C)C(=O)N[C@@H](CCCNC(=N)N)C(=O)N[C@H](C(=O)N[C@@H](CCCCN)C(=O)NCc1ccc(C(=N)N)cc1)C(C)C [ML-[AMBA]^P1, Ac-LLLLRVK-[AMBA]] (Ac-LLLLRVK-{NH(4-amidinobenzyl)}) |  |  |  | IC50 lower than the IC50 of the multi-Leu control | 
9 | CCCC[C@H](NC(C)=O)C(=O)N[C@@H](CCCC)C(=O)N[C@@H](CCCC)C(=O)N[C@@H](CCCC)C(=O)N[C@@H](CCCNC(=N)N)C(=O)N[C@H](C(=O)N[C@@H](CCCCN)C(N)=O)C(C)C [ML[Nleu]^P5-6-7-8, Ac-[Nle][Nle][Nle][Nle]RVK-NH2] (Ac-[Nle][Nle][Nle][Nle]RVK-NH2) |  |  |  |  | 344
10 | CCCC[C@H](NC(C)=O)C(=O)N[C@@H](CCCC)C(=O)N[C@@H](CC(C)C)C(=O)N[C@@H](CCCC)C(=O)N[C@@H](CCCN=C(N)N)C(=O)N[C@H](C(=O)N[C@@H](CCCCN)C(=O)N[C@@H](CCCN=C(N)N)C(N)=O)C(C)C [ML[Nle]^P5-6-8, Ac-[Nle][Nle]L[Nle]RVKR-NH2] | 41 |  |  |  | 85
11 | Ac-LLLSRVKR-NH2 [ML[Ser]-P5, Ac-LLLSRVKR-NH2] | 88 | 2.32 ± 0.04 |  |  | 11
